Values of other authors as cited in patent US20130312498A1, “CARDIOVASCULAR DISEASE RISK ASSESSMENT AND TREATMENT BY STEROL AND/OR STANOL MARKERS” (FOUNDATION FOR HEALTH IMPROVEMENT AND TECHNOLOGY, priority 2012, published 2013).

Columns and labels:
fatty acid absorption = conditions: in vivo
[1] = biological target: T1, NPC1L1/AP2-clathrin complex (Homo sapiens, UniProt Q9UHC9); conditions: typical effect, intestinal sterol absorption
T1 construct: from tissue; host or cells: intestinal epithelium (in vivo, patients)
T1 sequence (Q9UHC9 22-1359): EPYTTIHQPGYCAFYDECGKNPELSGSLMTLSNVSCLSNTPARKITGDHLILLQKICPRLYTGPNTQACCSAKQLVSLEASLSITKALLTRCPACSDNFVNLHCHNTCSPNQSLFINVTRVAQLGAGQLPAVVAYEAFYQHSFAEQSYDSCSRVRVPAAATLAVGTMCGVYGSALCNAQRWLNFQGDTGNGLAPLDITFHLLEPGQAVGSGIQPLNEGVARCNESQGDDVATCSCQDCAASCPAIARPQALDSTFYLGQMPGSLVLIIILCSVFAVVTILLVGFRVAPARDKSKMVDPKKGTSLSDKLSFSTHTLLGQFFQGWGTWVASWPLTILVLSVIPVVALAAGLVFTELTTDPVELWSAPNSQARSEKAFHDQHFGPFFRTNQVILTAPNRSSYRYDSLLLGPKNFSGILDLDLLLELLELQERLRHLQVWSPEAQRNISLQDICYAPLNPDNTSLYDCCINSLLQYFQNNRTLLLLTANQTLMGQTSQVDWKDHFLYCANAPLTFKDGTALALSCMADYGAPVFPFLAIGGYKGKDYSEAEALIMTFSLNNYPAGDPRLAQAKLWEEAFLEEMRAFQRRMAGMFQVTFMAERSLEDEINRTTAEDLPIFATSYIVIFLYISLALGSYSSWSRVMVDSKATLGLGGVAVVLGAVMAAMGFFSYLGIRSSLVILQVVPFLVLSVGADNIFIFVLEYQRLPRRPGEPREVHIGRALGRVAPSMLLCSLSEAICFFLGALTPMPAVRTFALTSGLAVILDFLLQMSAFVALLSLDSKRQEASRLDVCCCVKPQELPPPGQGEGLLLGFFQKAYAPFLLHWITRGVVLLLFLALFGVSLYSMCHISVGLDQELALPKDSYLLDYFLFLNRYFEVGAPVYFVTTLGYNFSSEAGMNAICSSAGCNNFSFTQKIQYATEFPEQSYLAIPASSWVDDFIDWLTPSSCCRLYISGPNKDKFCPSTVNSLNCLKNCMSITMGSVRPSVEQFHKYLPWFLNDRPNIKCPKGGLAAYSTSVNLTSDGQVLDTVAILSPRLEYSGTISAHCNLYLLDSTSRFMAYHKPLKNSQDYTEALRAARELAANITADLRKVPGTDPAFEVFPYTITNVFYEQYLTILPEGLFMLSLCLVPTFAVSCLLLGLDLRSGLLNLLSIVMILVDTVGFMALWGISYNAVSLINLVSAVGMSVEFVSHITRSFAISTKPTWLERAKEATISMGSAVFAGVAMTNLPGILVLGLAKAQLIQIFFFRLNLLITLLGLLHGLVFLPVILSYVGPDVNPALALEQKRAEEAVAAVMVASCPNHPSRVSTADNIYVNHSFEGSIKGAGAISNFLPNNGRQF

O=C1[C@H](CC[C@H](O)c2ccc(F)cc2)[C@@H](c2ccc(O)cc2)N1c1ccc(F)cc1 [Ezetimibe]
effect on fatty acid absorption (fatty acid absorption): no effect
reduction of sterol absorption [1]: about 50%
